Test results: patent US20260364186A1, “Chemical Conjugates, Compositions, and Methods of Preparation and Use Thereof” (Transfection Holdings Limited, priority 2022, published 2026)
Entries after “also recorded” stand apart in the source; their conditions may differ.

Experiments:
Format in all cases: cell-based, human
[1] = test system: NZM11 melanoma cancer cell line; experiment: FACS uptake of BODIPY FL conjugates, 50 nM, 5 min (Example 1)
Experimental: FIG. 1. Conjugate compounds coupled to BODIPY FL were tested for uptake using 50 nM each conjugate and 5 minute incubation with HEM (human epidermal melanocytes) and melanoma cell line NZM11 (BRAF V600E mutant metastatic melanoma). Mean fluorescent intensities (MFI). For these tests, n=300-500, mean±SD. Results were from a single experiment done in triplicate. Cells were sorted by FACS.
Materials and methods: NZM11 is an adherent metastatic melanoma cell derived from a patient with a subcutaneous lesion on their mid back. This human metastatic melanoma is identified with code CBA-1398 from Cell bank Australia. […] Cells of NZM11 diluted in MEMα media and cells of HEMnDP (primary melanocyte cell line) diluted in media 254 were left to settle in 96-wells microplate for 48 hours. 10 μL of 10 mM stock solutions in DMSO from 138 and pantothenic acid/pantothenic acid derivatives coupled to BODIPY were diluted with HBSS to afford 100 nM solution. Then, 100 nM compounds and DMSO solutions were diluted 1:1 with MEMα media for NZM11 and media 254 for HEMnDP to afford 50 nM solutions. After the 48 hour settle time, media was removed from the cells and 200 μL of 50 nM media solutions were poured to each well and incubated for 5 minutes at 37 °C. […] The FACS results output represented the mean of the fluorescence intensities (in arbitrary units) measured for cells sorted in every sample

Jurkat cells = experiment: Flow cytometry time course of uptake (Example 12); details: 200 nM
Experimental: FIG. 12: Time course of uptake for compounds 124, 126, and 132 at 200 nM after 5, 30 or 60 minute incubation with Jurkat cells. Mean fluorescent intensities (MFI). 1,000 cells were sorted by FACS. Bars represent mean±SD. Results represents a single experiment done in triplicate.
Materials and methods: For this study, 7.7×10^5 Jurkat cells were centrifuged for 5 minutes at 2500 RPM. The supernatant was removed and the cells were diluted in RPMI media (supplemented with 1% FBS+1% penicillin-streptomycin) to 400 cells/μL. Next, 28 μL of 100 μM stock solutions from compound 124, 126, or 132 were diluted with 6972 μL of RPMI media (supplemented with 1% FBS+1% penicillin-streptomycin) to give a 400 nM solution. Following this, 250 μL of conjugate solutions (giving a 200 nM final concentration) and 250 μL of cell suspensions were then added to each well in a 96 well plate. In addition, 250 μL of media only was added to the DMSO control wells. Incubation was carried out for 5, 30 and 60 minutes at 37 °C in triplicate wells for each compound and time point.
After incubation, cells were centrifuged for 1.5 minutes at 5000 RCF. Supernatant was removed and the cell pellet re-suspended in 200 μL fresh RPMI media, transferred to 96 well-plate and each cell suspension analysed by flow cytometry. Flow cytometry results represent the mean of the fluorescence intensities (in arbitrary units) measured for cells sorted in every sample.

[2] = test system: NZM011, NZM009, NZM012, NZM022 and NZM077 cells; experiment: Flow cytometry uptake into metastatic melanoma lines (Example 11); details: 200 nM, 30 minutes
Experimental: FIG. 11: Uptake for compounds 124, 126, and 132 at 200 nM and 30 minute incubation with melanoma cell lines: NZM12 (NZM012) (BRAF V600E mutant metastatic melanoma, homozygous deletion CDKN2A and low invasive cell line), NZM77 (NZM077) (BRAF V600E mutant metastatic melanoma and missense NF1), NZM22 (NZM022) (BRAF G466A mutant metastatic melanoma, P53 241S/T mutant, NF1 non-frameshift insertion and PTEN epigenetic silencing). NZM9 (NZM009) (P53 179C/T mutant and homozygous silencing CDKN2A). NZM11 (NZM011) (BRAF V600E mutant metastatic melanoma and homozygous deletion CDKN2A), as positive control. Mean fluorescent intensities (MFI). 1,500-2,000 cells were obtained. Bars represent mean±SD. Results are from a single experiment done in triplicate. Cells were analysed by FACS.
Methods: For screening, NZM011, NZM009, NZM012, NZM022 and NZM077 cells were suspended at 250 cells per μL in MEMα media and 200 μL was dispensed into 96 well plates. The cells were left to settle for 24 hours for NZM011, NZM012 and NZM077 and 48 hours for NZM009 and NZM022 at 37 °C, 5% O2, 5% CO2. Before addition to the cells, 10 μL of 10 mM stock solutions in DMSO of compounds 124, 126, and 132 were diluted with 1% FBS MEMα media to give a 200 nM solution.
After the appropriate settle time, the media was removed from the 96 well plates and 200 μL of 200 nM conjugate solutions and DMSO control were dispensed to each well (in triplicate) and incubated for 30 minutes at 37 °C, 5% O2, 5% CO2. After 30 minutes, the media was removed and cells washed with PBS. Next, 100 μL of TrypLE trypsin (ThermoFisher Scientific) was added to each well and incubated for 5 minutes at 37 °C. After this, 150 μL of MEMα media (plus 1% FBS for NZM011, NZM012 and NZM077; plus 5% FBS for NZM009 and NZM022) were added. Cells were analysed by flow cytometry using a FACS biosort and FITC filter. Flow cytometry results represent the mean of the fluorescence intensities (in arbitrary units) measured for cells sorted in every sample.

`CC1=CC(C)=[N+]2C1=Cc1ccc(CCCn3cc(CCNC(=O)/C=C/NC(=O)[C@H](O)C(C)(C)CO)nn3)n1[B-]2(F)F` [Compound 124] was tested, and the “uptake (fluorescence intensities)” value [1] was “significant uptake; also recorded: highest intensities; also recorded: best targeting activity, with high uptake into cancer cells”, the “uptake, times higher than DMSO control” value (Jurkat cells; 5 minutes) was 4 times and the “uptake increase compared to DMSO control” value (Jurkat cells; 30 minutes) was “ten”. The “uptake increase compared to DMSO control” value (Jurkat cells; 60 minutes) was “fourteen”, the “uptake, in words” value (Jurkat cells; 5, 30, 60 minutes) was “highest uptake at every timepoint; also recorded: selective uptake” and the “uptake, in words” value [2] was “highest uptake levels; also recorded: consistent, selective and high level of uptake”. For the same molecule, the “times greater uptake than conjugate 132” value ([2]; five cell lines) was 1.5-3 times.
